Two compounds from patent US20220193021A1 (priority 2019, published 2022) can be followed below.

Type in all cases: cell-based
The subject of assay [1] is influenza virus protein hemagglutinin 0 (HA0).
Assay [2] has as its system serine proteases (TMPRSS4, TMPRSS11D, TMPRSS2, and DESC1). Description: mRNA levels of serine proteases in human lung airway chips. The conditions noted are these: 10 μM versus vehicle.
Assay [3] has the same test system. Put plainly: Protein levels of serine proteases in human lung airway chips. The note with it: 10 μM versus vehicle. An excerpt: Protein levels of chips treated with nafamostat mesylate are relative to chips not treated with nafamostat mesylate.
The next assay relates to influenza virus.

Molecules are shown by their SMILES. Structures can show the parent of a compound that is named as a salt.

As to `N=C(N)c1ccc2cc(OC(=O)c3ccc(N=C(N)N)cc3)ccc2c1` [nafamostat mesylate], the “effect on the cleavage of HA0” value in assay [1] was “efficiently block”. In assay [2], the “effect on mRNA expression of serine proteases” value was “no effect”. Also, in assay [3], the “effect on protein expression of serine proteases” value was “no effect”.

As to `CCOC(=O)C1=C[C@@H](OC(CC)CC)[C@H](NC(C)=O)[C@@H](N)C1` [oseltamivir], the therapeutic window entry with influenza virus is on record as “approximately 48 hours”.
